Test results published in patent US20220133662A1, “ORAL DRUG, ADJUVANT CANCER THERAPY, AND PET THERAPEUTIC DIET” (priority 2019, published 2022).

What was measured:
COS7 cells = assay: Survival rate of COS7 cells (MTT), ketone donors alone or with cisplatin; type: cell-based; conditions: 1 mM ketone donor added with cisplatin, versus untreated group
Procedure: (§1) COS7 cells, that are a renal cytoblastoma, were used. Subconfluent cells were spread on 24-well plates at a density of 40,000 cells/cm^2 and cultured in Dulbecco's Modified Eagle Medium (D-MEM) containing 10% of inactivated fetal bovine serum for one hour. Various concentrations of ketone bodies (HB) and ketone ester (KE) were added to the culture medium of COS7 cells and cultured for 24 hours. After 24 hours of culturing, the culture medium was removed, and COS7 cells were cultured for two hours in PBS with 1 mg/ml of a chromogenic reagent 3-(4,5-dimethylthiazol-2-yl)-2,5-diphenyl tetrazolium bromide (MTT, Wako Pure Chemical Corporation).
(§2) After the culturing, cell lysis solution (50% formamide, 20% sodium dodecyl sulfate) was added and left for 24 hours. Thereafter, the absorbance at 540 nm was measured using an absorbance measurement device (Biorad microplate reader), and the measured absorbance was used to calculate survival rates of COS7 cells.

Hela cells = assay: Survival rate of Hela cells (MTT), ketone donors alone or with cisplatin; type: cell-based; conditions: 1 mM ketone donor with 0.3-3 μM of cisplatin, versus untreated group
Procedure: as §1, §2

[1] = cited from earlier work
[2] = in vivo; cited from earlier work
[3] = Ketone body concentration in the blood after a single ingestion in yogurt; type: in vivo; conditions: humans, 500 mg/kg of body weight in yogurt (200 g)
Procedure: PHB was extracted from OITC1261 by the method for purifying the powdered PHB shown in Example 2 (purity: 90%, weight-average molecular weight: 590,000). Ketone ester and PHB whose amounts were adjusted such that the intake thereof was 500 mg/kg of body weight were mixed uniformly in yogurt (200 g) and fed to humans. The ketone body concentration in the blood was measured using a ketone body value electrode (FS Precision ketone measurement electrode) of Precision Exceed (Abbott) every other hour. After ketone bodies were confirmed to be stable, plain yogurt was ingested.
The horizontal axis of the graph in FIG. 8 represents time. The vertical axis represents the ketone body concentration in the blood. Squares represent changes in the ketone body concentration in the blood over time in a group that ingested plain yogurt mixed with ketone ester. […]
The powdered PHB and ketone bodies whose amounts were adjusted such that the intake thereof was 500 mg, 300 mg, 100 mg, or 0 mg/kg of body weight were mixed uniformly in yogurt (200 g) and fed to humans. […] The ketone body concentration in the blood over time was measured using a ketone body value electrode (FS Precision ketone measurement electrode) of Precision Exceed (Abbott) every other hour. […]

SMILES	adjuvant effect on toxicity caused by cisplatin (COS7 cells)	adjuvant effect on toxicity caused by cisplatin (Hela cells)	time in which ketone body concentration in the blood increases after ingestion ([1]; ketone bodies ingested)	share of ketone bodies transferred to the brain [2]	time after ingestion at which ketone body concentration in the blood returns to the original level [3]	increase of the ketone body concentration in the blood ([1]; ketone ester ingested)
C[C@@H](O)CC(=O)O [ketone bodies, (R)-3-β-hydroxybutyric acid]	significantly promoted the toxic effect caused by cisplatin	significantly promoted the toxic effects due to cisplatin	within a few minutes	20-30%		
C[C@@H](O)CCOC(=O)C[C@@H](C)O [ketone ester, 3-hydroxybutyl-3-hydroxybutyric acid]					about five	several mM in a few minutes
